Paper PMC12549899 (Nature Communications, 2025)
“And” between values parts separate entries of the source, which are not always exact repeats. Identical values can stand only once. Like-named read-outs stand apart in the source and are kept apart here.

Target: T1, DrOTOP1 (Danio rerio, UniProt Q7ZWK8)
T1 construct: A previously generated codon-optimized full-length DrOTOP1[8]; (UniProt: Q7ZWK8) construct; expressed in transfected cells; host or cells: HEK-293 (CRL-1573, ATCC)
T1 sequence (Q7ZWK8 1-586): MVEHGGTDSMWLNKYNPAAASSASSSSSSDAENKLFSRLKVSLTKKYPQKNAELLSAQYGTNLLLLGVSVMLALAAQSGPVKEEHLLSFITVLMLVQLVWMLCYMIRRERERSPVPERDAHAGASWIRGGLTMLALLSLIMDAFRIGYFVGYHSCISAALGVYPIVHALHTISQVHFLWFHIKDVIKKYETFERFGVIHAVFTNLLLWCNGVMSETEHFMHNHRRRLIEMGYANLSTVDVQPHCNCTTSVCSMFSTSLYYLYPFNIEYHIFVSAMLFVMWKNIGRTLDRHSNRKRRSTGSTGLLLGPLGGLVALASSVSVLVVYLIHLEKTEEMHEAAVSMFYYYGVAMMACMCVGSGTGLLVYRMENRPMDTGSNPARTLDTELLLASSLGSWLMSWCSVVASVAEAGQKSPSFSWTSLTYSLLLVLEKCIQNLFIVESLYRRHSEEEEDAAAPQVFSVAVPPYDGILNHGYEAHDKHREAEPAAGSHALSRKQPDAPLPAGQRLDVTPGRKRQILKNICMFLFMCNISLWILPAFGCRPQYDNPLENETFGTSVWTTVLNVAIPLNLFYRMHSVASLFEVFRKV
Test: Whole-cell patch-clamp, inhibition of acid-evoked currents, WT DrOTOP1 expressed in HEK-293 cells
Format: cell-based, zebrafish (Danio rerio)
Set-up: key to inhibition of acid-evoked current, mean (Mean 1): % inhibition = ((I2peak-I1)/I2peak)*100
Conditions: for inhibition at 200 µM: read-out: Inhibition of currents
Text: The 50 molecules identified were individually tested by whole-cell patch-clamp electrophysiology for effects on DrOTOP1 expressed in human embryonic kidney (HEK)−293 cells. […] This approach enabled us to observe the on- and off-responses of each compound. To quantify the effect of each compound, we compared the current magnitude during compound application immediately before wash-off, to the peak inward current following its removal (Supplementary Fig. 2A).
HEK-293 cells (CRL-1573, ATCC) were cultured in DMEM (Thermofisher 11995073) containing 10% fetal bovine serum (Life Technology 16000044) and Penicillin-Streptomycin (100 I.U./mL) and (100 µg/mL), respectively. Cells were transfected with WT DrOTOP1 or mutant DrOTOP1 channels in 35 mm petri dishes, with ~ 500 ng DNA and 2 μL TransIT-LT1 transfection reagent (Mirus Bio Corporation, Cat # MIR2300) following the manufacturer’s protocol. All constructs were subcloned into a pcDNA3.1 vector that adds an N-terminal fusion tag consisting of an octahistidine tag followed by eGFP, a Gly-Thr-Gly-Thr linker and a 3C protease cleavage site ([…]) followed by WT DrOTOP1, WT mOTOP1, WT hOTOP1, or mutated DrOTOP1. Point mutations were generated via In-Fusion Cloning (Takara) using single-stranded DNA primers generated through IDT and sequence confirmed by Sanger sequencing (GeneWiz).
Whole-cell patch-clamp recording was performed as previously described[6],[22],[25]. Recordings were made with an Axopatch 200B amplifier, digitized with a Digidata 1322a 16-bit data acquisition system, acquired with pClamp 8.2 and analyzed with Clampfit 10 (Molecular Devices). Recordings were sampled at 5 kHz and filtered at 1 kHz. Patch Pipettes with resistance of […] were fabricated from borosilicate glass, and only recordings with a giga-Ohm seal were used in analysis. Membrane potential was held at −80 mV for the duration of recordings. At the beginning of recordings and between, cells were washed with Tyrode’s solution (see below). Once a giga-Ohm seal was reached, cells were lifted and placed in front of microcapillary tubes controlled by a Fast-Step perfusion system (Warner Instruments) so that extracellular solutions could be rapidly exchanged during each experiment.
Standard Tyrode’s solution consisted of 145 mM NaCl, 5 mM KCl, MgCl2, 2 mM CaCl2, 20 mM D-Glucose, and 10 mM HEPES (for pH 7.4). All other extracellular patch-clamp solutions contained 160 mM NMDG-Cl, 2 mM CaCl2, and the following buffers: 10 mM HEPES (for pH 7.4), 10 mM MES (for pH 6.5-5.5), 10 mM CHES for pH 10, and 10 mM HomoPIPES for (pH 5.0). pH adjusted with HCl. […] The pipette contained intracellular solution made up of 120 mM Cs-aspartate, 15 mM CsCl, 2 mM Mg-ATP, 5 mM EGTA, 2.4 mM CaCl2 (100 nM free Ca^2+), and 10 mM HEPES with a pH of 7.3. All extracellular solution osmolarity was adjusted to 300 mOsm and intracellular osmolarity was adjusted to 290 mOsm.
All data are presented as mean ± SEM unless otherwise noted, and each data point represents an independent replicant. Inhibition of compounds was quantified as ((I2peak-I1)/(I2peak))*100, where I1 is the current immediately before wash-off and I2peak is the maximum recovered current (Supplementary Fig. 2). Hill coefficients were determined by the following equation: Y = Bmax*X^h/(Kd^h + X^h).

[1] = 10 µM, pH 5, WT DrOTOP1, single cells
[2] = 10 µM, pH 6, WT DrOTOP1, single cells
[3] = 30 µM, pH 5, WT DrOTOP1, single cells
[4] = 30 µM, pH 6, WT DrOTOP1, single cells
[5] = 100 µM, pH 5, WT DrOTOP1, single cells
[6] = 100 µM, pH 6, WT DrOTOP1, single cells
[7] = 200 µM, pH 5.5, WT DrOTOP1, dose-response, single cells
[8] = 300 µM, pH 5.5, WT DrOTOP1, single cells
[9] = HEK293, pH 5, 30 µM, pH 5, WT DrOTOP1, single cells
[10] = HEK293, pH 5.5, 200 µM, pH 5.5, WT DrOTOP1, dose-response, single cells
[11] = HEK293, pH 5.5, 300 µM, pH 5.5, WT DrOTOP1, single cells
[12] = HEK293, pH 6, 10 µM, pH 6, WT DrOTOP1, single cells
[13] = HEK293, pH 6, 30 µM, pH 6, WT DrOTOP1, single cells
[14] = HEK293, pH 6, 100 µM, pH 6, WT DrOTOP1, single cells

SMILES | Inhibition of currents [1] | Inhibition of currents [2] | Inhibition of currents [3] | Inhibition of currents [4] | Inhibition of currents [5] | Inhibition of currents [6] | Inhibition of currents [7] | Inhibition of currents [8] | inhibition at 30 µM [9] [%] | inhibition at 200 µM [10] [%] | inhibition at 300 µM [11] [%] | inhibition at 10 µM [12] [%] | inhibition at 30 µM [13] [%] | inhibition at 100 µM [14] [%] | Hill coefficient (pH 5.0, WT DrOTOP1) | IC50 (pH 5.0, WT DrOTOP1) [µM] | Hill coefficient (pH 5.5, WT DrOTOP1) | IC50 (pH 5.5, WT DrOTOP1) | Hill coefficient (pH 6.0, WT DrOTOP1) | IC50 (pH 6.0, WT DrOTOP1) | also measured
C=C(C)COc1ccccc1NC(=O)c1nc[nH]c1C [C2.2] | 57.3692% and 44.5762% and 37.4476% and 30.9804% and 33.0274% | 62.6907% and 69.8462% and 72.5518% and 60.5453% | 79.1499% and 75.7339% and 78.9474% | 89.6104% and 92.0062% | 98.8642% and 100.372% | 101.656% and 100.935% and 99.4036% | 99.9505% and 99.4475% and 98.9119% | 99.8351% and 99.4122% and 98.63% | 79.1 | 100 | 99.9 | 62.3 | 80.7 | 100 | 1.53 | 12.6 | 1.52 and 1.5 | 6.67 µM | 1.25 | 5.99 µM and 5.97 µM | Inhibition of currents (0.1 µM, pH 5.5, WT DrOTOP1, single cells): 2.61% and 0.5081% and 0.05491%; Inhibition of currents (0.3 µM, pH 5.5, WT DrOTOP1, single cells): 3.209% and 3.843%; Inhibition of currents (1 µM, pH 5, WT DrOTOP1, single cells): 3.034% and 6.744% and 2.835%; Inhibition of currents (1 µM, pH 5.5, WT DrOTOP1, single cells): 3.496% and 5.882% and 11.0667%; Inhibition of currents (1 µM, pH 6, WT DrOTOP1, single cells): 7.93% and 17.0523% and 15.485%; Inhibition of currents (3 µM, pH 5.5, WT DrOTOP1, single cells): 21.7626% and 20.6603%; Inhibition of currents (30 µM, pH 5.5, WT DrOTOP1, single cells): 91.4446% and 86.3672% and 87.3001% and 85.4679%; Inhibition of pH 5.5-induced currents, screen 2 (200 µM compound, HEK-293 cells expressing DrOTOP1, Vm -80 mV, values of single cells, FDA 1-3 = FDA-approved drugs): fully blocked; inhibition at 100 µM (HEK293, pH 5, 100 µM, pH 5, WT DrOTOP1, single cells): 99.1%; inhibition at 0.3 µM (HEK293, pH 5.5, 0.3 µM, pH 5.5, WT DrOTOP1, single cells): 2.64%; inhibition at 3 µM (HEK293, pH 5.5, 3 µM, pH 5.5, WT DrOTOP1, single cells): 17%; inhibition at 30 µM (HEK293, pH 5.5, 30 µM, pH 5.5, WT DrOTOP1, single cells): 88.3%; inhibition at 100 µM (HEK293, pH 5.5, 100 µM, pH 5.5, WT DrOTOP1, single cells): 99.4%; Mean, Fig 5N (WT + C2.2, n=8): 31.97; inhibition of acid-evoked current, mean (Mean 1) (WT DrOTOP1, Supp. Fig 5E stats): 99.31; inhibition of acid-evoked current, mean (Mean 1) (WT DrOTOP1, Supp. Fig 5F stats): 65.72
O=C(/C(=N\O)c1ccccc1)c1ccccc1 [C11, benzil monoxime] | 4.424% and 3.103% | 7.181% and 5.566% and 5.627% | 24.2292% and 16.076% | 21.9002% and 19.6399% and 27.9569% | 50.6107% and 59.4827% and 56.6039% and 73.4375% | 58.9165% and 51.9948% and 54.7438% and 59.958% | 92.006% and 94.7798% and 86.5734% | 100.665% and 98.5727% and 97.2447% | 16.2 | 96.6 | 102 | 5.56 | 19 | 68.6 | 1.88 | 75.2 | 2.2 and 2.21 | 76 µM and 76.3 µM | 1.67 | 71.5 µM | Inhibition of currents (10 µM, pH 5.5, WT DrOTOP1, single cells or mean): 3.913% and 2.872% and 1.269% and 1.559%; Inhibition of pH 5.5-induced currents, screen 1 (200 µM compound, HEK-293 cells expressing DrOTOP1, Vm -80 mV, values of single cells): nearly fully inhibited; Inhibition of currents (200 µM, pH 5, WT DrOTOP1, single cells): 88.3451% and 83.853%; Inhibition of currents (200 µM, pH 6, WT DrOTOP1, single cells): 84.9844% and 81.9304% and 93.4599%; Inhibition of currents (300 µM, pH 5, WT DrOTOP1, single cells): 96.0707% and 96.7562%; Inhibition of currents (300 µM, pH 6, WT DrOTOP1, single cells): 97.5242% and 103.48%; inhibition at 10 µM (HEK293, pH 5, 10 µM, pH 5, WT DrOTOP1, single cells): 3.81%; inhibition at 200 µM (HEK293, pH 5, 200 µM, pH 5, WT DrOTOP1, single cells): 80.8%; inhibition at 300 µM (HEK293, pH 5, 300 µM, pH 5, WT DrOTOP1, single cells): 101%; inhibition at 200 µM (HEK293, pH 6, 200 µM, pH 6, WT DrOTOP1, single cells): 89.5%; inhibition at 300 µM (HEK293, pH 6, 300 µM, pH 6, WT DrOTOP1, single cells): 99.8%
